Measurements from PMC6112376, “Comprehensive Analyses and Prioritization of Tox21 10K Chemicals Affecting Mitochondrial Function by in-Depth Mechanistic Studies” (Environmental Health Perspectives, 2018).
Read-outs that look alike come from different tables or passages of the source.

Assays:
HepG2 cells [1] = details: HepG2 cells, single number from one experiment; for IC50: read-out: MMP assays IC50 (µM) HepG2
rat primary hepatocytes [2] = test: MMP assay in rat primary hepatocytes; details: for IC50: read-out: MMP assays IC50 (µM) Rat Hepatocytes
HepG2 cells [3] = details: cited from earlier work
rat primary hepatocytes [4] = system: rat primary hepatocytes
[5] = rat hepatocytes, mean ± SD of three experiments
[6] = read-out: MMP assays IC50 (µM) qHTS-HepG2
[7] = read-out: MMP assays IC50 (µM), qHTS-HepG2

Compound	MMP assays efficacy (%) HepG2 (HepG2 cells [1])	IC50 (HepG2 cells [1]) [µM]	MMP assays efficacy (%) Rat Hepatocytes (rat primary hepatocytes [2]; [5])	IC50 (rat primary hepatocytes [2]; [5]) [µM]	MMP assays efficacy (%) qHTS-HepG2 (HepG2 cells [3])	IC50 (HepG2 cells [3]; [6]) [µM]	MMP assays IC50 (µM) HepG2 (HepG2 cells [1])	MMP assays IC50 (µM) Rat Hepatocytes (rat primary hepatocytes [2]; [5])	MMP assays IC50 (µM) qHTS-HepG2 (HepG2 cells [3])	IC50 (HepG2 cells [3]; [7]) [µM]	MMP assays efficacy (%) Rat Hepatocytes (rat primary hepatocytes [4]) [%]	IC50 (rat primary hepatocytes [2]; Rattus norvegicus, Hepatocyte) [µM]
Nc1nc2ccc([N+](=O)[O-])cc2s1 [Compound 2-Amino-6-nitrobenzothiazole]	-89%	44.7	-81±29%	22.7 ± 20.4	-70±17%	12.7 ± 10.5	–	–	–	–	–	–
COC(=O)C1=C(C)NC(C)=C(C(=O)OCC(C)=O)C1c1ccccc1[N+](=O)[O-] (stereo not drawn) [Aranidipine]	inactive	–	inactive	–	-56±6%	12.8 ± 3.68	inactive	inactive	–	–	–	–
Cc1nc2ccccc2s1 [Compound 2-Methylbenzothiazole]	inactive	–	inactive	–	inactive	–	inactive	inactive	inactive	–	–	–
O=C(O)Cc1cc(I)c(Oc2cc(I)c(O)c(I)c2)c(I)c1 [3,3',5,5'-Tetraiodothyroacetic acid]	-87%	39	-110±24%	26.1 ± 2.13	-87±2%	45.8 ± 2.99	–	–	–	–	–	–
COc1cc(Cl)ccc1Cl [2,5-Dichloroanisole]	inactive	–	inactive	–	inactive	–	inactive	inactive	inactive	–	–	–
O=C1c2ccccc2C(=O)C1c1ccc2ccccc2n1 [D&C Yellow 11]	-75%	0.44	inactive	–	-76±6%	0.38 ± 0.13	–	inactive	–	–	–	–
Cc1cc(N)c2cc(NC(=O)Nc3ccc4nc(C)cc(N)c4c3)ccc2n1.Cl.Cl [Aminoquinuride dihydrochloride]	-90%	27.5	inactive	–	-99±7%	25 ± 4.09	–	–	–	–	–	–
CC/C=C\C/C=C\C/C=C\CCCCCCCC(=O)OCC [Ethyl linolenate]	inactive	–	inactive	–	-51±21%	49.6 ± 36	inactive	inactive	–	–	–	–
CC(C)(C)OC(=O)c1ccc(O)cc1 [tert-Butyl 4-hydroxybenzoate]	-105%	35.5	-80±10%	50.8 ± 9.48	-99±24%	–	–	–	–	25.3 ± 7.32	–	–
CC1C2CC(CC2C2CCCC(O)C2)C1(C)C (stereo not drawn)	-108%	39.8	inactive	–	-98±23%	31.8 ± 17.5	–	inactive	–	–	–	–
Verteporfin	-127%	8.69	-43±14%	21.8 ± 7.79	-65±5%	–	–	–	–	3.27 ± 1.85	–	–
CC(=O)OCCN(CCOC(C)=O)c1ccc(N=Nc2ccc([N+](=O)[O-])cc2C#N)cc1 [Disperse Red 82]	-71%	6.31	-59±9%	11.7 ± 8.76	-87±5%	8 ± 1.45	–	–	–	–	–	–
CC(C)(C)c1cc(Cc2cc(C(C)(C)C)c(O)c(C(C)(C)C)c2)cc(C(C)(C)C)c1O [4,4'-Methylenebis(2,6-di-t-butylphenol)]	inactive	–	inactive	–	inactive	–	inactive	inactive	inactive	–	–	–
O=C(CC(=O)C(F)(F)F)c1ccccc1 [4,4,4-Trifluoro-1-phenyl-1,3-butanedione]	-85%	31.6	inactive	–	-103±7%	20.4 ± 6.17	–	inactive	–	–	–	–
Oc1ccc2cc(SSc3ccc4cc(O)ccc4c3)ccc2c1 [6-Hydroxy-2-naphthyl disulfide]	-98%	28.2	-68±46%	39.8	-110±7%	33.7 ± 3.64	–	–	–	–	–	–
CCCCCCCCCCCCOC(=O)c1ccc(O)cc1 [Dodecylparaben]	-106%	7.94	inactive	–	-107±9%	4.19 ± 1.07	–	inactive	–	–	–	–

Compound	MMP assays efficacy (%) HepG2 (HepG2 cells [1])	IC50 (HepG2 cells [1]) [µM]	MMP assays efficacy (%) Rat Hepatocytes (rat primary hepatocytes [2]; [5])	IC50 (rat primary hepatocytes [2]; [5]) [µM]	MMP assays efficacy (%) qHTS-HepG2 (HepG2 cells [3])	IC50 (HepG2 cells [3]; [6]) [µM]	MMP assays IC50 (µM) HepG2 (HepG2 cells [1])	MMP assays IC50 (µM) Rat Hepatocytes (rat primary hepatocytes [2]; [5])	MMP assays IC50 (µM) qHTS-HepG2 (HepG2 cells [3])	IC50 (HepG2 cells [3]; [7]) [µM]	MMP assays efficacy (%) Rat Hepatocytes (rat primary hepatocytes [4]) [%]	IC50 (rat primary hepatocytes [2]; Rattus norvegicus, Hepatocyte) [µM]
CC(C)(c1cc(Br)c(O)c(Br)c1)c1cc(Br)c(O)c(Br)c1 [3,3φ,5,5φ-Tetrabromobisphenol A]	-98%	17.8	-76±30%	36.9 ± 12.6	-123±2%	13.2 ± 12.2	–	–	–	–	–	–
Cc1cc2c(cc1C(F)(F)F)N(C(=O)Nc1ccc(Oc3cccnc3C)nc1)CC2.Cl	-104%	2	-98±10%	6.15 ± 3.62	-159±11%	14.4 ± 5.99	–	–	–	–	–	–
CCCCCCCCCCCCCC[N+](C)(C)Cc1ccccc1.O.O.[Cl-]	-114%	13.8	inactive	–	-76±17%	16.4 ± 4.28	–	inactive	–	–	–	–
O=CC=C(c1ccccc1)c1ccccc1 [2-Propenal,3,3-diphenyl-]	-40%	56.2	-78±36%	17.1 ± 23.9	-87±29%	41.2 ± 19.3	–	–	–	–	–	–
CCN=C1C=CC(=C(c2ccc(N(CC)CC)cc2)c2ccc(N(CC)CC)cc2)c2ccccc21.Cl [Basic blue 7]	-78%	0.05	-79±39%	1.53 ± 1.42	-87±17%	0.02 ± 0.03	–	–	–	–	–	–
CC[C@H](NC(=O)c1cc(F)ccc1[N-]S(=O)(=O)c1cccc2cccnc12)c1ccccc1.[Na+]	-98%	11.2	-84±50%	35.9 ± 20.2	-101±14%	–	–	–	–	4.42 ± 6.97	–	–
TYROTHRICIN	–	–	–	–	–	–	–	–	–	–	-89±25	–
Nc1ccc2cc3ccc(N)cc3nc2c1.Nc1ccc2cc3ccc(N)cc3nc2c1.O=S(=O)(O)O [Proflavin hemisulfate]	-95%	3.46	-94±11%	11.6 ± 5.45	-115±21%	–	–	–	–	3.22 ± 0.82	–	–
CCC(=O)O[C@]1(C(=O)CCl)[C@@H](C)C[C@H]2[C@@H]3CCC4=CC(=O)C=C[C@]4(C)[C@@]3(F)[C@@H](O)C[C@@]21C [Clobetasol propionate]	inactive	–	-39±3%	–	-98±19%	24.6 ± 1.67	inactive	–	–	–	–	24.1 ± 9.54
Cc1cc(Nc2ccc(O)cc2)ccc1N	-101%	14.1	inactive	–	-93±15%	7.66 ± 0.88	–	inactive	–	–	–	–
O=C([O-])c1cc(=O)c2c3nc4ccccc4oc-3cc(=O)c2[nH]1.[Na+] [Pirenoxine sodium]	inactive	–	inactive	–	-54±10%	–	inactive	inactive	–	21.1 ± 17.8	–	–
CCCCCCCCCCn1cc[n+](C)c1.F[B-](F)(F)F [1-Decyl-3-methylimidazolium tetrafluoroborate]	-104%	7.08	-100±10%	16.8 ± 7.73	-68±12%	3.87	–	–	–	–	–	–
CCC(=O)OCC(=O)[C@@]1(OC(=O)CC)[C@@H](C)C[C@H]2[C@@H]3CCC4=CC(=O)C=C[C@]4(C)[C@@]3(Cl)[C@@H](O)C[C@@]21C [Beclazone]	-61%	21.8	-89±79%	16.3 ± 20.6	-103±9%	23.7 ± 2.74	–	–	–	–	–	–
CN[C@H]1CC[C@@H](c2ccc(Cl)c(Cl)c2)c2ccc(S(N)(=O)=O)cc21	-84%	10	-51±37%	35.7 ± 5.79	-78±20%	8.31 ± 1.43	–	–	–	–	–	–
CCCCCCCCCOC(=O)c1ccc(O)cc1 [Nonylparaben]	-110%	7.94	inactive	–	-101±6%	–	–	inactive	–	4.43 ± 0.3	–	–
